US8933019B2, “Antiviral cell-penetrating peptides” (priority 2008, dated 2015)
Where two headings read alike, the source gives them in different places. Bridge positions count the residues as written; N and C are the ends. Square brackets hold non-standard residues; d marks the D form. Peptide text beside a SMILES is read from it. S5 = C=CCCC[C@](C)(N)C(=O)O

Legend:
HIV-1 BCF02 = test: Inhibition of primary HIV-1 isolate, p24 ELISA, PBMC; format: cell-based; conditions: (Group 0), coreceptor R5, read-out: IC50 (μM ± SD), HIV-1 BCF02
Procedure: (§1) The inhibitory activity of peptides on infection by primary HIV-1 isolates was determined as previously described (Jiang et al., Antimicrob. Agents Chemother. 48:4349-4359, 2004). Peripheral blood mononuclear cells (PBMCs) were isolated from the blood of healthy donors at the New York Blood Center by standard density gradient centrifugation using Histopaque-1077 (Sigma-Aldrich). The cells were cultured at 37° C. for 2 hr. Nonadherent cells were collected and resuspended at 5×10^6 cells/ml RPMI-1640 medium containing 10% FBS, 5 μg/ml PHA, and 100 U/ml IL-2 (Sigma-Aldrich), followed by incubation at 37° C. for 3 days. The PHA-stimulated cells (5×10^4 cells/well) were infected with primary HIV-1 isolates at 500 TCID50 (0.01 MOI) in the absence or presence of peptide inhibitor at graded concentrations. Culture media were changed every 3 days and replaced with fresh media containing freshly prepared inhibitor. The supernatants were collected 7 days post-infection and tested for p24 antigen by ELISA (FIG. 6). The percent inhibition of p24 production, IC50 and IC90 values were calculated by the GraphPad Prism software (GraphPad Software Inc.).
(§2) NYAD-201, NYAD-202 and NYAD-203 were also tested against a set of primary HIV-1 isolates in PBMC representing mostly group M and one from group O with diverse coreceptor usage. […] The inhibitory activities of the peptides against this diverse range of primary isolates were similar, indicating its effectiveness against a wide range of HIV-1 isolates.

HIV-1 98CN009 = test: as above; format: cell-based; conditions: subtype C, coreceptor R5, read-out: IC50 (μM ± SD), HIV-1 98CN009
Procedure: as §1, §2

HIV-1 CMU02 = test: as above; format: cell-based; conditions: subtype EA, coreceptor X4, read-out: IC50 (μM ± SD), HIV-1 CMU02
Procedure: as §1, §2

HIV-1 92US657 = test: as above; format: cell-based; conditions: subtype B, coreceptor R5, read-out: IC50 (μM ± SD), HIV-1 92US657
Procedure: as §1, §2

HIV-1 93IN101 = test: as above; format: cell-based; conditions: subtype C, coreceptor R5, read-out: IC50 (μM ± SD), HIV-1 93IN101
Procedure: as §1, §2

HIV-1 93BR020 = test: as above; format: cell-based; conditions: subtype F, coreceptor R5X4, read-out: IC50 (μM ± SD), HIV-1 93BR020
Procedure: as §1, §2

HIV-1 93RW024 = test: as above; format: cell-based; conditions: subtype A, coreceptor R5X4, read-out: IC50 (μM ± SD), HIV-1 93RW024
Procedure: as §1, §2

HIV-1 RU570 = test: as above; format: cell-based; conditions: subtype G, coreceptor R5, read-out: IC50 (μM ± SD), HIV-1 RU570
Procedure: as §1, §2

HIV-1 92UG029 = test: as above; format: cell-based; conditions: subtype A, coreceptor X4, read-out: IC50 (μM ± SD), HIV-1 92UG029
Procedure: as §1, §2

[1] = Cytotoxicity, XTT method, MT-2 cells; format: cell-based, human; conditions: human, read-out: CC50 (μM) ± SD, cytotoxicity in MT-2 cells
Procedure: (§3) Cytotoxicity of peptides in MT-2 cells and PBMC was measured by the XTT [(sodium 3′-(1-(phenylamino)-carbonyl)-3,4-tetrazolium-bis(4-methoxy-6-nitro) bezenesulfonic acid hydrate)] method as previously described (Jiang et al., 2004). Briefly, for MT-2 cells, 100 μl of a peptide at graded concentrations was added to an equal volume of cells (1×10^5 cells/ml) in 96-well plates followed by incubation at 37° C. for 4 days, which ran parallel to the neutralization assay in MT-2 (except medium was added instead of virus). In the case of PBMC, 5×10^5 cells/ml were used and the cytotoxicity was measured after 7 days. After addition of XTT (PolySciences, Inc.), the soluble intracellular formazan was quantitated colorimetrically at 450 nm 4 hr later with a reference at 620 nm. The percent of cytotoxicity and the CC50 values were calculated as above (Table 2 and Table 3).

HIV-1 SF2 = conditions: read-out: IC50 (μM ± SD), HIV-1 SF2; laboratory strain, subtype B, MT-2, coreceptor R5X4
Procedure: (§4) The inhibitory activity of NYAD-201, and related stapled peptides on infection by laboratory-adapted HIV-1 strains was determined as previously described (Jiang et al. J Exp. Med 174:1557-1563, 1991) with minor modifications. Azidothymidine (AZT) was used as a positive control in the infectivity assays. In brief, 1×10^4 MT-2 cells were infected with HIV-1 at 100 TCID50 (50% tissue culture infective dose) (0.01 MOI [multiplicity of infection]) in 200 μl RPMI 1640 medium containing 10% FBS in the presence or absence of peptides at graded concentrations overnight. The culture supernatants were then removed and fresh media containing freshly prepared test peptide were added. On the fourth day post-infection, 100 μl of culture supernatants were collected from each well, mixed with equal volume of 5% Triton X-100 and tested for p24 antigen by ELISA.
(§5) In addition, NYAD-201, NYAD-202 and NYAD-203 were also tested using several laboratory-adapted and primary isolates in MT-2 cells and PBMC (peripheral blood mononuclear cells), respectively.

HIV-1 IIIB = system: HIV-1 IIIB
Procedure: as §4, §5

HIV-1 RF = conditions: read-out: IC50 (μM ± SD), HIV-1 RF; laboratory strain, subtype B, MT-2, coreceptor X4
Procedure: as §4, §5

HIV-1 MN = conditions: read-out: IC50 (μM ± SD), HIV-1 MN; laboratory strain, subtype B, MT-2, coreceptor X4
Procedure: as §4, §5

HIV-1RF/L-323-12-3 = conditions: read-out: IC50 (μM ± SD), HIV-1RF/L-323-12-3; PR-resistant isolate, subtype B, MT-2, coreceptor X4
Procedure: as §4, §5

HIV-1 AZT-R = conditions: read-out: IC50 (μM ± SD), HIV-1 AZT-R; RT-resistant isolate, subtype B, MT-2, coreceptor X4
Procedure: as §4, §5

[2] = Cytotoxicity, XTT method, PBMC; format: cell-based; conditions: human
Procedure: as §3

Jurkat cells = test: Cytotoxicity, LDH leakage, Jurkat cells; format: cell-based; conditions: 30 min, 2 hr and 4 hr of exposure
Procedure: (§6) Cytotoxicity was also evaluated in Jurkat cells using a Promega LDH leakage detection kit. Jurkat cells were plated at 10^4 cells/well in a volume of 200 μl. The test was performed after 30 min, 2 hr and 4 hr of exposure to the NYAD-201, NYAD-202 and NYAD-203 compounds.

[3] = Solubility, observation in the Jurkat cytotoxicity test; format: physicochemical
Procedure: as §6

HIV-1 89.6 = format: cell-based; conditions: laboratory strain, subtype B, PBMC, coreceptor R5X4; read-out: IC50 (μM ± SD), HIV-1 89.6
Procedure: as §1
(§7) In addition, NYAD-201, NYAD-202 and NYAD-203 were also tested using several laboratory-adapted and primary isolates in MT-2 cells and PBMC (peripheral blood mononuclear cells), respectively. The inhibition of p24 production in MT-2 cells by NYAD-201 and its analogs were measured over a range of concentrations and the concentration required to inhibit 50% (IC50) of the p24 production was calculated. […] NYAD-201 and its analogs inhibited the laboratory strains with low μM potency (IC50˜2-8 μM), and both R5- and X4-tropic viruses were inhibited with similar potency.

HIV-1 BaL = format: cell-based; conditions: laboratory strain, subtype B, PBMC, coreceptor R5; read-out: IC50 (μM ± SD), HIV-1 BaL
Procedure: as §1, §7

`CSCC[C@@H]1NC(=O)[C@H](Cc2c[nH]c3ccccc23)NC(=O)[C@@](C)(NC(=O)[C@H](CCCCN)NC(=O)[C@@H](NC(=O)[C@H](C)NC(=O)[C@H](CCC(N)=O)NC(=O)[C@H](C)N)C(C)C)CCCC=CCCC[C@@](C)(C(=O)N[C@H](C(=O)N[C@@H](CC(C)C)C(=O)N[C@@H](CC(C)C)C(=O)N[C@H](C(=O)N[C@@H](C)C(N)=O)C(C)C)[C@@H](C)O)NC(=O)[C@H]([C@@H](C)O)NC1=O` [NYAD-202, AQAVKXWMTXTLLVA] (H-AQAVK[S5]WMT[S5]TLLVA-NH2; staple 6-10) showed an IC50 (HIV-1 BCF02) of 6.2 ± 1.2 µM, an IC50 (HIV-1 98CN009) of 4.08 ± 0.92 µM and an IC50 (HIV-1 CMU02) of 4.2 ± 0.01 µM. For the same compound, the IC50 (HIV-1 92US657) was 3.61 ± 0.57 µM, the IC50 (HIV-1 93IN101) was 5.53 ± 0.39 µM and the IC50 (HIV-1 93BR020) was 2.51 ± 0.43 µM. For the same compound, the IC50 (HIV-1 93RW024) was 3.71 ± 0.19 µM, the IC50 (HIV-1 RU570) was 6.34 ± 2.22 µM and the IC50 (HIV-1 92UG029) was 3.97 ± 0.47 µM. The CC50 at 4 days [1] was 30.2 ± 4.32 µM, the IC50 (HIV-1 SF2) was 4.48 ± 0.84 µM and the IC50 (HIV-1 IIIB; read-out: IC50 (μM ± SD), HIV-1 IIIB, laboratory strain, subtype B, MT-2, coreceptor X4) was 2.36 ± 0.33 µM. For the same compound, the IC50 (HIV-1 IIIB; read-out: IC50 (μM) ± SD, antiviral activity against HIV-1 IIIB, MT-2 cells, p24 production, fourth day post-infection) was 2.36 ± 0.33 µM, the IC50 (HIV-1 RF) was 2.64 ± 0.39 µM and the IC50 (HIV-1 MN) was 2.47 ± 0.71 µM. The IC50 (HIV-1RF/L-323-12-3) was 3.5 ± 0.6 µM, the IC50 (HIV-1 AZT-R) was 4.53 ± 1.19 µM and the CC50 at 7 days [2] was greater than 116 µM. The “Cytotoxicity in Jurkat cells (LDH leakage)” value (Jurkat cells) was “did not demonstrate toxicity”, the Solubility [3] was “not very soluble” and the IC50 (HIV-1 89.6) was 3.47 ± 0.22 µM. For the same compound, the IC50 (HIV-1 BaL) was 2.23 ± 0.44 µM.
